Laboratory results: patent US10966978B2, “Dose and regimen for HDM2-p53 interaction inhibitors” (Novartis AG, priority 2016, dated 2021)
Converted amounts (≈) assume the structure as drawn. Like-named read-outs stand apart in the source and are kept apart here. Marks after values point to notes of the source that are not given here.

Assays:
[1] = test system: human SJSA-1 (osteosarcoma) xenograft; assay: PK/PD tumor growth modelling, human SJSA-1 xenograft rat model; assay type: in vivo; settings: predicted preclinical target
Description: Calculation of average dose level (mg/day):
To further support the preferred dose for HDM201, compartmental PK modeling was used to estimate the individual average concentration per cycle for the 9 patients treated at 120 mg on regimen 1B (FIG. 2). For the majority of patients (7 out of 9), the estimated average drug concentrations per cycle were near or above the most conservative average tumor stasis concentration of ≈41 ng/mL per cycle determined from PKPD modeling of preclinical data (human SJSA-1 xenograft rat model).

SJSA-1 cell line = assay: Cellular activity in SJSA-1 cell line; assay type: cell-based; settings: Homo sapiens
platelets = assay: PK/PD model of thrombocytopenia (modeled platelet kinetic profiles); parameters: species or system human; settings: regimen 1B (150 mg)
Description: Based on individual PK and platelet counts data overtime a PK/PD model was established.
PK model: 1 compartment with biphasic absorption.
PD model: Adjusted Friberg model for thrombocytopenia including PLT transfusions and effect on HDM201 on proliferative cells and regulations.
The platelet kinetic profiles shown in FIG. 5 are modeled based on the following doses as tested in each regimen (in order from top to bottom in FIG. 5): […]

[2] = test system: advanced TP53 wild-type (WT) leukemias (AML, ALL); assay type: in vivo, human
Description: Tables 5 and 6 and FIG. 6 provide efficacy information for dosing regimen 1B in comparison to other regimens.

[3] = Compartmental PK modeling of average concentration during cycle 1, patients with hematological tumors; assay type: in vivo, human; settings: all patients with measured PK, four regimens
Description: Pharmacokinetic data have been evaluated throughout the course of the clinical study. […] Furthermore, an integrated analysis of all available HDM201 concentrations was conducted using a population approach. The PK of HDM201 was best described by a 1-compartment PK model with a delayed zero- and first-order absorption process, and a linear clearance. Body weight was identified as a statistically significant covariate on apparent central volume of distribution (Vc/F), in which Vc/F increased with increasing body weight.
Compartmental PK modeling was used to estimate the individual average concentration during cycle 1 for patients with hematological tumors treated following the four different (FIG. 7). For all patients with measured PK, the estimated average drug concentrations during cycle 1 were above the most conservative average tumor stasis concentration of about 41 ng/mL per cycle determined from PKPD modeling of preclinical data (human SJSA-1 xenograft rat model).

[4] = AML CR patient, 1A 250 mg, March 2017
[5] = AML CR patient, 1A 400 mg, March 2017
[6] = AML CR patient, 2C 45 mg, March 2017
[7] = AML CRi patient, 1B 150 mg, March 2017
[8] = CR, Reg 1A 250 mg, person, September 2017
[9] = CR, Reg 1A 400 mg, Male/71, September 2017
[10] = CR, Reg 1B 120 mg, Male/67, September 2017
[11] = CR, Reg 2C 45 mg, Male/76, September 2017
[12] = CR, Reg 2C 45 mg, person, September 2017
[13] = CRi, Reg 1A 250 mg, person, September 2017
[14] = CRi, Reg 1B 150 mg, person, September 2017
[15] = CRi, Reg 2C 45 mg, Male/70, September 2017
[16] = CRi, Reg 2C 45 mg, Male/79, September 2017
[17] = CRi, Reg 2C 45 mg, person one, September 2017
[18] = CRi, Reg 2C 45 mg, person three, September 2017
[19] = Dose escalation, Regimen 2C 45 mg (8 patients), September 2017
[20] = Dose expansion, Regimen 2C 45 mg (17 patients), September 2017
[21] = Regimen 1A (n = 15), March 2017

COc1ncc(-c2nc3c(n2C(C)C)[C@H](c2ccc(Cl)cc2)N(c2cc(Cl)cn(C)c2=O)C3=O)c(OC)n1 [HDM201, (S)-5-(5-Chloro-1-methyl-2-oxo-1,2-dihydro-pyridin-3-yl)-6-(4-chloro-phenyl)-2-(2,4-dimethoxy-pyrimidin-5-yl)-1-isopropyl-5,6-dihydro-1H-pyrrolo[3,4-d]imidazol-4-one]
average concentration (target efficacious level) for 95% tumor regression [1]: 120 ng/mL | IC50 (SJSA-1 cell line): 0.0294 µg/mL (≈ 0.0529 µM) | platelet kinetic profile, modeled, compared among regimens with single agent activity (platelets): best overall platelet kinetic profile | Count recovery time from C1D1 [2, 4]: 48 days | Duration of CR/CRi [2, 4]: 50 days | Time to CR/CRi [2, 4]: 7 weeks | Count recovery time from C1D1 [2, 5]: 40 days | Duration of CR/CRi [2, 5]: 23 days | Time to CR/CRi [2, 5]: 6 weeks | Count recovery time from C1D1 [2, 6]: 32 days | Duration of CR/CRi [2, 6]: 152 days | Time to CR/CRi [2, 6]: 5 weeks | Duration of CR/CRi [2, 7]: 51 days | Time to CR/CRi [2, 7]: 11 weeks | Duration of CR/CRi ([2]; AML CRi patient, 2C 45 mg, donor five, March 2017, patient withdrew consent while on CRi): 1* days | Duration of CR/CRi ([2]; AML CRi patient, 2C 45 mg, donor two, March 2017, patient ongoing at data cut off): 1^† days | CR/CRi results, number of patients ([2]; AML patients, Regimen 1B, September 2017): The already observed 2 CR/CRi results out of the small number of patients treated so far demonstrate the strong antitumor activity of the HDM201 in AML patients when dosed according to Regimen 1B. | Count recovery time from C1D1 [2, 8]: 48 days | Duration of CR/CRi [2, 8]: 50 days | Time to CR/CRI [2, 8]: 7 weeks | Count recovery time from C1D1 [2, 9]: 40 days | Duration of CR/CRi [2, 9]: 23 days | Time to CR/CRI [2, 9]: 6 weeks | Count recovery time from C1D1 [2, 10]: 28 days | Duration of CR/CRi [2, 10]: 45 days | Time to CR/CRI [2, 10]: 4 weeks | Count recovery time from C1D1 [2, 11]: 32 days | Duration of CR/CRi [2, 11]: 152 days | Time to CR/CRI [2, 11]: 5 weeks | Count recovery time from C1D1 [2, 12]: 30 days | Duration of CR/CRi [2, 12]: 41 days | Time to CR/CRI [2, 12]: 4 weeks | Duration of CR/CRi [2, 13]: 67 days | Time to CR/CRI [2, 13]: 3 weeks | Duration of CR/CRi [2, 14]: 51 days | Time to CR/CRI [2, 14]: 11 weeks | Duration of CR/CRi [2, 15]: 1 days | Time to CR/CRI [2, 15]: 12 weeks | Duration of CR/CRi [2, 16]: 62 days | Time to CR/CRI [2, 16]: 4 weeks | Duration of CR/CRi [2, 17]: 105 days | Time to CR/CRI [2, 17]: 4 weeks | Duration of CR/CRi [2, 18]: 40 days | Time to CR/CRI [2, 18]: 7 weeks | CR, number of patients ([2]; Dose escalation, Regimen 1A 250 mg (3 patients), September 2017): 250 mg (3): 1 CR | CR, number of patients ([2]; Dose escalation, Regimen 1A 400 mg (9 patients), September 2017): 400 mg (9): 1 CR | CR, number of patients ([2]; Dose escalation, Regimen 1B 120 mg (6 patients), September 2017): 120 mg (6): 1 CR | CRi, number of patients ([2]; Dose escalation, Regimen 1B 150 mg (6 patients), September 2017): 150 mg (6): 1 CRi | CR, number of patients [2, 19]: 1 | CRi, number of patients [2, 19]: 3 | CRi, number of patients ([2]; Dose expansion, Regimen 1A 250 mg, 6 pts, September 2017): 1 CRi | CR, number of patients [2, 20]: 1 CR, 1CRi | CRi, number of patients [2, 20]: 1 CR, 1CRi | BOR: CR [2, 21]: 2 (13) n (%) | BOR: CRi [2, 21]: 0 (0) n (%) | ORR (CR + CRi + PR) [2, 21]: 2 (13) n (%) | BOR: CR ([2]; Regimen 1B (n = 6), March 2017): 0 (0) n (%) | BOR: CRi ([2]; Regimen 1B (n = 6), March 2017): 1 (17) n (%) | ORR (CR + CRi + PR) ([2]; Regimen 1B (n = 6), March 2017): 1 (17) n (%) | BOR: CR ([2]; Regimen 2A (n = 7), March 2017): 0 (0) n (%) | BOR: CRi ([2]; Regimen 2A (n = 7), March 2017): 0 (0) n (%) | ORR (CR + CRi + PR) ([2]; Regimen 2A (n = 7), March 2017): 0 (0) n (%) | BOR: CR ([2]; Regimen 2C (n = 7), March 2017): 1 (14) n (%) | BOR: CRi ([2]; Regimen 2C (n = 7), March 2017): 3 (43) n (%) | ORR (CR + CRi + PR) ([2]; Regimen 2C (n = 7), March 2017): 4 (57) n (%) | BOR: CR ([2]; Total (N = 35), March 2017): 3 (9) n (%) | BOR: CRi ([2]; Total (N = 35), March 2017): 4 (11) n (%) | ORR (CR + CRi + PR) ([2]; Total (N = 35), March 2017): 7 (20) n (%) | patients with CRi ([2]; regimen 1B, hematological tumors): One patient | estimated average concentration during cycle 1 relative to tumor stasis concentration (about 41 ng/mL) [3]: above
